The target in the test is T1, human M2 receptor (Homo sapiens, UniProt P08172).
T1 sequence (P08172 1-466): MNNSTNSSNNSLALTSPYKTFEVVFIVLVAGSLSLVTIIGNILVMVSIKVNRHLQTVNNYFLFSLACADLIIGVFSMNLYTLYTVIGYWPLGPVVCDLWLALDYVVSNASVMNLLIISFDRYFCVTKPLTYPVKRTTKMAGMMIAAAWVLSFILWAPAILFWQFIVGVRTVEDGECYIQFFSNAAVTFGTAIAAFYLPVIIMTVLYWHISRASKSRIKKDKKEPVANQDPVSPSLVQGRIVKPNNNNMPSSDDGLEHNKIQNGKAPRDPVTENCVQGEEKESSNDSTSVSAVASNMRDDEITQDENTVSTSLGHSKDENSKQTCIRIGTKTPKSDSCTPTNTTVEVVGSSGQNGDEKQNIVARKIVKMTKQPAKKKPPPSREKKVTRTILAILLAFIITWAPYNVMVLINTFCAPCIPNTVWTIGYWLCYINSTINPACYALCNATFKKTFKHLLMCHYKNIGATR
The conditions noted are these: for Emax: read-out: Efficiency, boosting of the acetylcholine effect at EC20 acetylcholine concentration.

Setting [1] is: Receptor activity EC50, M2-GIRK1/4 activation test, acetylcholine at EC20, allosteric potency, in some cases mean values from two or more determinations.
The mark [2] stands for this setting: Receptor activity EC50, allosteric potency at EC20 acetylcholine, M2-GIRK1/4 reporter cells, in some cases mean of two or more determinations.

Where two headings read alike, the source gives them in different places.

One may read the EC50 as the concentration needed to bring the measured effect to its halfway point. A high value points to a need for much substance.

`O=C(N[C@H](C1CC1)C(F)(F)F)c1cn(-c2c(F)cccc2F)c2nc(N3CC4CC4(O)C3)ccc2c1=O` (mixture of isomers) [Example 319, N-[(1R)-1-Cyclopropyl-2,2,2-trifluoroethyl]-1-(2,6-difluorophenyl)-7-[1-hydroxy-3-azabicyclo[3.1.0]hex-3-yl]-4-oxo-1,4-dihydro-1,8-naphthyridine-3-carboxamide] displayed an EC50 under setting [1] of 25 nM.
On the same count and under the same terms, then `CC[C@@H](NC(=O)c1cn(-c2c(F)cc(F)cc2F)c2nc(N3CCC(C)(O)C3)ccc2c1=O)C(F)(F)F` (stereo partly drawn) [Example 324, 7-[3-Hydroxy-3-methylpyrrolidin-1-yl]-4-oxo-N-[(2R)-1,1,1-trifluorobutan-2-yl]-1-(2,4,6-trifluorophenyl)-1,4-dihydro-1,8-naphthyridine-3-carboxamide], with 34 nM.
In turn, `CC(NC(=O)c1cn(-c2ccc(F)cc2F)c2nc(N(C)C)ccc2c1=O)C(F)(F)F` (racemic) [Example 147, rac-1-(2,4-Difluorophenyl)-7-(dimethylamino)-4-oxo-N-(1,1,1-trifluoropropan-2-yl)-1,4-dihydro-1,8-naphthyridine-3-carboxamide] yielded an EC50 under setting [1] of 82 nM.
Compound `O=C(NC1(C(F)(F)F)CCCC1)c1cn(-c2ccc(F)cc2F)c2nc(NCC(F)(F)F)ccc2c1=O` [Example 96, 1-(2,4-Difluorophenyl)-4-oxo-7-[(2,2,2-trifluoroethyl)amino]-N-[1-(trifluoromethyl)cyclopentyl]-1,4-dihydro-1,8-naphthyridine-3-carboxamide] came in with an EC50 under setting [1] of 134 nM.
Under setting [1], `O=C(NC(c1c(F)cccc1F)C(F)(F)F)c1cn(-c2ccc(F)cc2F)c2nc(N3CCCC(O)C3=O)ccc2c1=O` (single isomer, unassigned) [Example 249, 1-(2,4-Difluorophenyl)-N-[1-(2,6-difluorophenyl)-2,2,2-trifluoroethyl]-7-[3-hydroxy-2-oxopiperidin-1-yl]-4-oxo-1,4-dihydro-1,8-naphthyridine-3-carboxamide] registered an EC50 of 505 nM.
Same read-out and setting: next, `CN(C)c1ccc2c(=O)c(C(=O)Nc3c(Cl)cccc3Cl)cn(-c3ccc(F)cc3F)c2n1` [Example 55, N-(2,6-Dichlorophenyl)-1-(2,4-difluorophenyl)-7-(dimethylamino)-4-oxo-1,4-dihydro-1,8-naphthyridine-3-carboxamide]: 36 nM; `CC(CC(F)(F)F)NC(=O)c1cn(-c2ccc(F)cc2F)c2nc(N(C)C)ccc2c1=O` (racemic) [Example 46, rac-1-(2,4-Difluorophenyl)-7-(dimethylamino)-4-oxo-N-[4,4,4-trifluorobutan-2-yl]-1,4-dihydro-1,8-naphthyridine-3-carboxamide]: 127 nM; `CN(C)c1ccc2c(=O)c(C(=O)NC3(C)CCCCC3)cn(-c3ccc(F)cc3Cl)c2n1` [Example 156, 1-(2-Chloro-4-fluorophenyl)-7-(dimethylamino)-N-(1-methylcyclohexyl)-4-oxo-1,4-dihydro-1,8-naphthyridine-3-carboxamide]: 86 nM.
`CC(NC(=O)c1cn(-c2c(F)cc(F)cc2F)c2nc(N3C[C@@H](O)CC3=O)ccc2c1=O)C(F)(F)C(F)(F)F` (single isomer, unassigned) [Example 531]: the response under setting [2] was half-maximal at 9 nM (EC50). The compound also had an Efficiency (boosting of the acetylcholine effect at EC20 acetylcholine concentration, M2-GIRK1/4 reporter cells) of 97.0%.
Consider `O=C(NC12CC3CC(CC(C3)C1)C2)c1cn(-c2ccc(F)cc2F)c2nc(N3C[C@@H](O)CC3=O)ccc2c1=O` [Example 170], for which, under setting [1], it took 19 nM to reach a half-maximal effect (EC50).
As to `CC[C@@H](NC(=O)c1cn(-c2c(Cl)cccc2Cl)c2nc(N3CC4CC4(O)C3)ccc2c1=O)C(F)(F)F` (stereo partly drawn) [Example 652, 1-(2,6-Dichlorophenyl)-7-[1-hydroxy-3-azabicyclo[3.1.0]hex-3-yl]-4-oxo-N-[(2R)-1,1,1-trifluorobutan-2-yl]-1,4-dihydro-1,8-naphthyridine-3-carboxamide], under setting [2], the EC50 is 89 nM. In addition, the Emax (M2-GIRK1/4 reporter cells) worked out at 80%.
Compound `CCC(COC(F)(F)F)NC(=O)c1cn(-c2c(F)cc(F)cc2F)c2nc(N3C[C@@H](O)[C@H](O)C3)ccc2c1=O` (single isomer, unassigned) [Example 577] yielded an EC50 under setting [2] of 20 nM. Moreover, under “M2-GIRK1/4 reporter cells”, the Emax was found to be 100%.
With `O=C(NC12CC(C1)C2)c1cn(-c2c(F)cc(F)cc2F)c2nc(N3CCNC3=O)ccc2c1=O` [Example 653, N-(Bicyclo[1.1.1]pent-1-yl)-4-oxo-7-(2-oxoimidazolidin-1-yl)-1-(2,4,6-trifluorophenyl)-1,4-dihydro-1,8-naphthyridine-3-carboxamide], it took 89 nM to reach a half-maximal effect under setting [2] (EC50). For the setting “M2-GIRK1/4 reporter cells”, the Emax was found to be 86.5%.
For `O=C(N[C@H](C1CC1)C(F)(F)F)c1cn(-c2c(Cl)cc(F)cc2Cl)c2nc(N3CCNC3=O)ccc2c1=O` [Example 647, N-[(1R)-1-Cyclopropyl-2,2,2-trifluoroethyl]-1-(2,6-dichloro-4-fluorophenyl)-4-oxo-7-(2-oxoimidazolidin-1-yl)-1,4-dihydro-1,8-naphthyridine-3-carboxamide], the Emax (M2-GIRK1/4 reporter cells) turned out to be 92%.
In turn, `CN(C)c1ccc2c(=O)c(C(=O)NC(C)(C)C)cn(-c3ccc(F)cc3Cl)c2n1` [Example 155, N-tert-Butyl-1-(2-chloro-4-fluorophenyl)-7-(dimethylamino)-4-oxo-1,4-dihydro-1,8-naphthyridine-3-carboxamide] showed an EC50 under setting [1] of 173 nM.
Still for that read-out and setting: next, `CC[C@H](NC(=O)c1cn(-c2c(F)cccc2F)c2nc(N3C[C@@H](O)[C@H](O)C3)ccc2c1=O)C(F)(F)F` [Example 348, 1-(2,6-Difluorophenyl)-7-[(3R,4R)-3,4-dihydroxypyrrolidin-1-yl]-4-oxo-N-[(2S)-1,1,1-trifluorobutan-2-yl]-1,4-dihydro-1,8-naphthyridine-3-carboxamide]: 61 nM; `O=C(N[C@H](c1ccccc1Cl)C(F)(F)F)c1cn(-c2ccc(F)cc2F)c2nc(N3CCCC(O)C3=O)ccc2c1=O` (single isomer, unassigned) [Example 209]: 163 nM; `CN(C)c1ccc2c(=O)c(C(=O)NCc3c(Cl)cccc3Cl)cn(-c3ccc(F)cc3F)c2n1` [Example 49, N-(2,6-Dichlorobenzyl)-1-(2,4-difluorophenyl)-7-(dimethylamino)-4-oxo-1,4-dihydro-1,8-naphthyridine-3-carboxamide]: 89 nM.
As for `CC[C@H](NC(=O)c1cn(-c2c(F)cccc2F)c2nc(N3CC4CC4(O)C3)ccc2c1=O)C(F)(F)F` (mixture of isomers) [Example 417, 1-(2,6-Difluorophenyl)-7-[1-hydroxy-3-azabicyclo[3.1.0]hex-3-yl]-4-oxo-N-[(2S)-1,1,1-trifluorobutan-2-yl]-1,4-dihydro-1,8-naphthyridine-3-carboxamide], a half-maximal response under setting [2] (EC50) required 24 nM. Also, the Emax (M2-GIRK1/4 reporter cells) was found to be 100%.
For `CC[C@H](NC(=O)c1cn(-c2c(F)cc(F)cc2F)c2nc(NC(C)(C)C)ccc2c1=O)C(F)(F)F` [Example 499] the same measures were 63 nM and 96%.
Take `O=C(NC(CC(F)(F)F)C1CC1)c1cn(-c2c(F)cc(F)cc2F)c2nc(N3C[C@@H](O)CC3=O)ccc2c1=O` (mixture of isomers) [Example 512, N-[1-Cyclopropyl-3,3,3-trifluoropropyl]-7-[(4S)-4-hydroxy-2-oxopyrrolidin-1-yl]-4-oxo-1-(2,4,6-trifluorophenyl)-1,4-dihydro-1,8-naphthyridine-3-carboxamide]: under setting [2], a half-maximal response (EC50) required 10 nM. Moreover, under “M2-GIRK1/4 reporter cells”, the Emax was determined as 100%.
As for `CC[C@@H](NC(=O)c1cn(-c2ccc(F)cc2F)c2nc(N3CC(O)C4(CC4)C3)ccc2c1=O)C(F)(F)F` (stereo partly drawn) [Example 355, 1-(2,4-Difluorophenyl)-7-[7-hydroxy-5-azaspiro[2.4]hept-5-yl]-4-oxo-N-[(2R)-1,1,1-trifluorobutan-2-yl]-1,4-dihydro-1,8-naphthyridine-3-carboxamide], the EC50 under setting [1] is 85 nM.
As for `CC[C@H](NC(=O)c1cn(-c2c(F)cc(F)cc2F)c2nc(N3CC(O)C4(CC4)C3)ccc2c1=O)C(F)(F)F` (mixture of isomers) [Example 619, 7-[7-Hydroxy-5-azaspiro[2.4]hept-5-yl]-4-oxo-N-[(2S)-1,1,1-trifluorobutan-2-yl]-1-(2,4,6-trifluorophenyl)-1,4-dihydro-1,8-naphthyridine-3-carboxamide], the response under setting [2] was half-maximal at 40 nM (EC50). The Emax (M2-GIRK1/4 reporter cells) was 88.6%.
`CC(C)(CC(F)(F)F)NC(=O)c1cn(-c2c(F)cc(F)cc2F)c2nc(N3C[C@@H](O)[C@@H](O)C3)ccc2c1=O` [Example 612, 7-[(3R,4S)-3,4-Dihydroxypyrrolidin-1-yl]-4-oxo-N-(4,4,4-trifluoro-2-methylbutan-2-yl)-1-(2,4,6-trifluorophenyl)-1,4-dihydro-1,8-naphthyridine-3-carboxamide] returned an EC50 under setting [2] of 29 nM. In addition, the Emax (M2-GIRK1/4 reporter cells) was 100%.
For `CC[C@H](NC(=O)c1cn(-c2c(F)cc(F)cc2Cl)c2nc(N3C(=O)CC[C@@H]3CO)ccc2c1=O)C(F)(F)F` [Example 430, 1-(2-Chloro-4,6-difluorophenyl)-7-[(2R)-2-(hydroxymethyl)-5-oxopyrrolidin-1-yl]-4-oxo-N-[(2)-1,1,1-trifluorobutan-2-yl]-1,4-dihydro-1,8-naphthyridine-3-carboxamide] the same measures were 61 nM and 90%.

The record behind these values is US20190367516A1 (Bayer Pharma Aktiengesellschaft, priority 2015, published 2019).
